The numbers were not newly measured in patent US20040248214A1, “Novel method of assaying immune activity” (priority 2001, published 2004), which cites them from elsewhere.

One series deals with NKT cells. The conditions noted are these: cancer-bearing mouse.

For the molecule `CCCCCCCCCCCCCCCCCCCCCCCCCC(=O)N[C@@H](CO[C@H]1O[C@H](CO)[C@H](O)[C@H](O)[C@H]1O)[C@H](O)[C@H](O)CCCCCCCCCCCCCC` [α-galactosylceramide], in the series on NKT cells, the “activation of NKT cells” value was “NKT cells were activated”, the disappearance of cancer result was “disappearance of cancer was not noted” and the metastasis result is “metastasis was suppressed”.
For IL-12: interleukin 12, the side effect entry (IL-12 per se directly administered into living body) is “results in a side effect”. Also, under “in vivo”, the anti-cancer effect result is “has an anti-cancer effect”.
